{"source": "paper PMC9271885", "about": "(eBioMedicine, 2022)", "key": {"[1]": {"assay": "in vitro", "description": "One day prior to infection, 96-well culture plates were seeded with 5×10^4 Vero E6 or Caco-2 cells in 100µL assay medium per well (containing 2.5% FCS). […] After 15min, a preset amount of virus diluted in 25µL of assay medium was added to the wells. This quantity of virus was calibrated so that the viral replication was still in the exponential growth phase for the readout, as previously described, [28], [29] which correspond here to 150 TCID50 per well. Four “cell control” wells were supplemented with 50µL of assay medium without any compounds or virus. On each culture plate, a positive control compound (Remdesivir, BLDpharm) was added in duplicate with eight 2-fold serial dilutions (0.16µM to 20µM). Plates were incubated for 2 days at 37°C prior to quantification of the viral genome by real-time RT-PCR as described below. For the determination of the 50% cytotoxic concentrations (CC50; compound concentration required to reduce by 50% cell viability), the same culture conditions were used, without addition of the virus, and cell viability was measured using CellTiter Blue® (Promega) following manufacturer's instructions. EC50, EC90 and CC50 were determined using logarithmic interpolation as previously described.[28] The selectivity index of the compounds was calculated as the ratio of the CC50 over the EC50."}, "[2]": {"tested_on": "SARS-CoV-2", "assay": "microbe, parasite or virus in culture", "assay_type": "cell-based", "conditions": "Vero E6 cells, viral RNA, 2 days incubation; for EC50: read-out: EC50"}, "[3]": {"assay": "Population pharmacokinetic modelling and simulation of TIZ in hamster (LC-MS/MS, NONMEM)", "conditions": "in vivo", "description": "At each time point, approximate 80µl of blood were collected from the submandibular vein or the saphenous vein of hamsters. All samples were transferred into commercial K2-EDTA tubes, placed on ice until processed for plasma extraction by centrifugation and stored at −70°C before analysis. A LC-MS/MS-AI Triple Quad 5500 was used to determine TIZ concentrations. The mobile phase was a gradient of 0.1% formic acid (FA) in water and 0.1% of FA in acetonitrile (ACN), the column was an ACQUITY UPLC HSS T3 1.8 μm 2.1 × 50mm. For mass spectrometry a positive electrospray ionization was used, and a selected reaction monitoring was set to select TIZ: [M+H]+m/z: 266.0 / 121.2 and dexamethasone: [M+H]+m/z: 393.0 / 373.1 as internal standard.\nPharmacokinetic profiles of TIZ in hamster were analyzed using a nonlinear mixed-effects modelling approach. The population pharmacokinetics analysis was performed using NONMEM® version 7.4. The final pharmacokinetic model was established by evaluating one-, two-, and three-compartment disposition models, as well as several different absorption models (i.e. first-order absorption, first-order absorption with lag time, and transit absorption models). The inter-individual variabilities of pharmacokinetic parameters were implemented as a log-normal distribution and the residual unexplained variability was modelled as an exponential error."}, "[4]": {"conditions": "Severe acute respiratory syndrome coronavirus 2, Vero C1008, 48 h"}}, "note": "Read-outs that look alike come from different tables or passages of the source."}
{"compound": "CC(=O)Oc1ccccc1C(=O)Nc1ncc([N+](=O)[O-])s1", "note": "[NTZ, Nitazoxanide]", "values": [{"measurement": "CC50 at 2 days", "setting": "[1]; African green monkey, CC50, Vero E6 cells, no virus", "value": "> 60", "unit": "µM"}, {"measurement": "CC50 at 2 days", "setting": "[1]; human", "value": 9.15, "unit": "µM"}, {"measurement": "EC90", "setting": "[2]; [4]", "value": 10.3, "unit": "µM"}, {"measurement": "EC50", "setting": "[2]; [4]", "value": 3.19, "unit": "µM"}, {"measurement": "EC50", "setting": "[2]", "value": "< 5", "unit": "µM"}, {"measurement": "V/F volume of distribution of the central compartment, population estimate (%RSE)", "setting": "[3]", "value": "0.128 (48.3) L"}, {"measurement": "CL/F oral clearance, population estimate (%RSE)", "setting": "[3]; po", "value": "0.651 (11.9) L/h"}]}
